What was measured:
[1] = system: D.T.H. response with sheep red blood cells; experiment: effect on cell-mediated or cellular immunity: Delayed Type Hypersensitivity (D.T.H.) with sheep red blood cells; assay type: in vivo, CDF1-mouse; conditions: oral, 24 hours after challenge, * P < 0.05
Method: (2) The effect on cell-mediated or cellular immunity:
The effect of the new arphamenine-related compounds on cell-mediated or cellular immunity was evaluated by measuring Delayed Type Hypersensitivity (D.T.H.) using mice which received sheep red blood cell inoculated as antigen into the footpad of mice for immunization (see P. H. Lagrange, G. B. Mackaness and T. E. Miller: "J. Exp. Med.", 139, 1529-1539 (1974)).
A suspension of 10^8 sheep red blood cells (SRBC) in 0.05 ml of physiological saline was subcutaneously injected into one footpad of each CDF1 -mouse (female, 8 weeks-aged, 5 mice in each group) for immunization. Simultaneously, the mouse under test was given orally the test compound at a dosage of 5 mg/Kg, 0.5 mg/Kg or 0.05 mg/Kg as a solution of the test compound which was prepared by dissolving the test compound in physiological saline and then filtering the resulting solution by a millipore filter. On 4 days after the administration of the test compound, 10^8 sheep red blood cells were subcutaneously injected into another footpad of each test mouse for secondary challenge of the D.T.H. response. 24 Hours after the challenge, the thickness of the footpads was measured with calipers. Concurrently, the thickness of footpad of control mice which had received the injection of SRBC and physiological saline without the administration of the test compound was also measured in each mouse.
The effect of the test compound on the DTH response was evaluated by a percentage of increase in footpad thickness as calculated according to the following equation: [formula]

ICR-strain mice = experiment: Toxicity after intraperitoneal administration; assay type: in vivo; conditions: 100 mg/Kg intraperitoneally, ICR-strain mice (male, 5 weeks-aged)
carboxypeptidase A = target: T1, carboxypeptidase A (Bos taurus, UniProt P00730); experiment: inhibitory activity of the compounds to carboxypeptidase A; assay type: biochemical, bovine; conditions: hippuryl-L-phenylalanine substrate, pH 7.5, 37° C., 30 minutes; read-out: IC50 (50% Inhibition Concentration) (converted)
T1 construct: purchased Sigma Co. Type 1; host or cells: bovine pancreas
T1 sequence (P00730 111-417 limits assumed): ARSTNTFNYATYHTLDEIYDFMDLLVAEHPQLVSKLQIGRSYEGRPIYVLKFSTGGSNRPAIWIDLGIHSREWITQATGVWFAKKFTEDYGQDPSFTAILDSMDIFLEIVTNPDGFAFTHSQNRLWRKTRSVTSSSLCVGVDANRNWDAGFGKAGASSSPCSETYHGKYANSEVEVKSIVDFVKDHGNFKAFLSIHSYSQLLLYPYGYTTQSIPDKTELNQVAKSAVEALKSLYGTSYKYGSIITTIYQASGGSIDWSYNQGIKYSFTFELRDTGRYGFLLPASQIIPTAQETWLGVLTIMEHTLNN
Method: (1) Method of testing the inhibitory activity of the compounds to carboxypeptidase A: The carboxypeptidase A-inhibitory activity was determined according to a modification of the method of Hayakari et al. (M. Hayakari et al., "Analytical Biochemistry" 84, 361-369, 1978). Thus, a mixture of 0.05 ml of a solution of 10 mM hippuryl-L-phenylalanine (as substrate), 0.25 ml of 0.05 M Tris-hydrochloride buffer (pH 7.5) containing 0.9 M NaCl and 0.15 ml of a solution containing a test compound as produced in Example 1, 2, 3 or 4 shown hereinafter was heated at 37° C. for 3 minutes. To said mixture was then added 0.05 ml of a carboxypeptidase A (Type 1, as extracted from bovine pancreas, a product of Sigma Co.), and the enzymatic reaction was effected at 37° C. for 30 minutes. The reaction solution was admixed with 0.03 ml of aqueous 1N sodium hydroxide to stop the reaction. After allowing to stand at ambient temperature for 15 minutes, the reaction solution was admixed with 2 ml of 0.06 M phosphate buffer (pH 7.2) and with 2 ml of a solution of 1% cyanuric chloride in ethylene glycol monomethylester. After the reaction solution was allowed to stand at ambient temperature for 5 minutes, absorbance (a) at 382 nm of the reaction solution was measured. For the blank test, the above procedure was repeated using said buffer solutions without the test compound, and the absorbance (b) was measured in the blank test. The percentage for inhibition to carboxypeptidase A was calculated according to the equation: [formula] On the basis of the values of percentages of inhibition measured by the above procedure, 50% Inhibition Concentration (IC50) was evaluated.

immune response = conditions: earlier publications/filings; cited from earlier work
tumor = conditions: earlier filings; cited from earlier work
carboxypeptidase = conditions: J. Antibiot., 37, 682 (1984); cited from earlier work

Compound | Percentage of increase in footpad thickness ([1]; 0.05 mg/Kg) | Percentage of increase in footpad thickness ([1]; 0.5 mg/Kg) | Percentage of increase in footpad thickness ([1]; 5 mg/Kg) | death (ICR-strain mice) | IC50 (carboxypeptidase A) | immunopotentiating activity (immune response) | antitumor activity (tumor) | carboxypeptidase-inhibitory activity (carboxypeptidase)
Cc1cc(C)nc(NCCCC(NC(=O)c2ccccc2)C(=O)CC(Cc2ccccc2)C(=O)O)n1 (centres unmarked) [Example 1 (b), 5-benzoylamino-8-[(4,6-dimethylpyrimidin-2-yl)amino]-4-oxo-2-phenylmethyloctanoic acid] | 107 Percentage | 121 Percentage | 128 Percentage | no death | 40.9 nM |  |  | 
Cc1cc(C)nc(NCCCC(NC(=O)c2ccccc2)C(=O)CC(Cc2ccc(O)cc2)C(=O)O)n1 (centres unmarked) [Example 2 (b), 5-benzoylamino-8-[(4,6-dimethylpyrimidin-2-yl)amino]-2-(4'-hydroxyphenylmethyl)-4-oxo-octanoic acid] | 113 Percentage | 130 Percentage | 144 Percentage | no death | 17.4 nM |  |  | 
Cc1cc(C)nc(NCCCC(NC(=O)OCc2ccccc2)C(=O)CC(Cc2ccccc2)C(=O)O)n1 (centres unmarked) [Example 3 (b), 5-benzyloxycarbonylamino-8-[(4,6-dimethylpyrimidin-2-yl)amino]-4-oxo-2-phenylmethyloctanoic acid] | 110 Percentage | 120 Percentage | 136 Percentage | no death | 123 nM |  |  | 
Cc1cc(C)nc(NCCCC(NC(=O)OCc2ccccc2)C(=O)CC(Cc2ccc(O)cc2)C(=O)O)n1 (centres unmarked) [Example 4 (b), 5-benzyloxycarbonylamino-8-[(4,6-dimethylpyrimidin-2-yl)amino]-2-(4'-hydroxyphenylmethyl)-4-oxo-octanoic acid] | 110 Percentage | 123 Percentage | 145 Percentage | no death | 655 nM |  |  | 
N=C(N)NCCCC(N)C(=O)CC(Cc1ccccc1)C(=O)O (centres unmarked) [arphamenine A] |  |  |  |  |  | immunopotentiating activity | antitumor activity | 
N=C(N)NCCCC(N)C(=O)CC(Cc1ccc(O)cc1)C(=O)O (centres unmarked) [arphamenine B] |  |  |  |  |  | immunopotentiating activity | antitumor activity | 
benzylmalic acid |  |  |  |  |  | shows an immunopotentiating activity |  | having a carboxypeptidase-inhibitory activity

From US4661495A, “Arphamenine-related compounds useful for potentiating the immune response in a living animal” (Zaidan Hojin Biseibutsu Kagaku Kenkyu Kai, priority 1984, dated 1987)
